Reference: ChEMBL document CHEMBL3885881, “DrugMatrix”

Species on record: Rattus norvegicus
Experiment: DrugMatrix - Regimen: Daily Repeat
Assay type: toxicity, organism-based, Sprague-Dawley
Design: regimen Daily Repeat, gender Male, age 6-8 weeks
Details: in vivo, po, route oral GAVAGE, vehicle .5 % CMC; for ABSOLUTE BASOPHIL / ABSOLUTE EOSINOPHIL / ABSOLUTE LYMPHOCYTE / ABSOLUTE MONOCYTE / ABSOLUTE SEGMENTED NEUTROPHIL / BASOPHIL / EOSINOPHIL / ERYTHROCYTE COUNT / HEMATOCRIT / HEMOGLOBIN / LEUKOCYTE COUNT / LYMPHOCYTE / MEAN CORPUSCULAR HEMOGLOBIN / MEAN CORPUSCULAR HEMOGLOBIN CONCENTRATION / MEAN CORPUSCULAR VOLUME / MONOCYTE / NEUTROPHIL / NUCLEATED RED BLOOD CELLS / PLATELET COUNT: tissue Blood; for ALANINE AMINOTRANSFERASE / ALBUMIN / ALKALINE PHOSPHATASE / ASPARTATE AMINOTRANSFERASE / BLOOD UREA NITROGEN / CARBON DIOXIDE / CHLORIDE / CHOLESTEROL / CREATINE PHOSPHOKINASE / CREATININE / GLUCOSE / LACTATE DEHYDROGENASE / LIPASE / PHOSPHORUS / POTASSIUM / SODIUM / TOTAL BILIRUBIN / TOTAL PROTEIN / URIC ACID: tissue Plasma
[1] = 100 mg/kg, 120 h, dose level Low, time 5 day
[2] = 501 mg/kg, 72 h, dose level High, time 3 day
[3] = 501 mg/kg, 120 h, dose level High, time 5 day

## CCc1ccc(C(=O)C(C)CN2CCCCC2)cc1 (centres undefined) [EPERISONE]
[1]
  ABSOLUTE BASOPHIL: 0 CELLS/uL
  ABSOLUTE EOSINOPHIL: 0 CELLS/uL
  ABSOLUTE LYMPHOCYTE: 13749 CELLS/uL
  ABSOLUTE MONOCYTE: 246.33 CELLS/uL
  ABSOLUTE SEGMENTED NEUTROPHIL: 1338 CELLS/uL
  BASOPHIL: 0%
  EOSINOPHIL: 0%
  ERYTHROCYTE COUNT: 5.46 x10E6/uL
  HEMATOCRIT: 34.27%
  HEMOGLOBIN: 13.2 G/DL
  LEUKOCYTE COUNT: 15.33 x10E3/uL
  LYMPHOCYTE: 89.67%
  MEAN CORPUSCULAR HEMOGLOBIN: 24.17 pg
  MEAN CORPUSCULAR HEMOGLOBIN CONCENTRATION: 38.53 G/DL
  MEAN CORPUSCULAR VOLUME: 62.83 fL
  MONOCYTE: 1.67%
  NEUTROPHIL: 8.67%
  NUCLEATED RED BLOOD CELLS: 0 /100WBC
  PLATELET COUNT: 1278.33 x10E3/uL
  ALANINE AMINOTRANSFERASE: 50 u/L
  ALBUMIN: 4.27 G/DL
  ALKALINE PHOSPHATASE: 325.67 u/L
  ASPARTATE AMINOTRANSFERASE: 101.33 u/L
  BLOOD UREA NITROGEN: 17.33 mg/dL
  CARBON DIOXIDE: 25.33 mmol/L
  CHLORIDE: 106 MEQ/L
  CHOLESTEROL: 66.33 mg/dL
  CREATINE PHOSPHOKINASE: 609 u/L
  CREATININE: 0.21 mg/dL
  GLUCOSE: 159 mg/dL
  LACTATE DEHYDROGENASE: 465 u/L
  LIPASE: 9.67 u/L
  PHOSPHORUS: 13.17 mg/dL
  POTASSIUM: 6.21 MEQ/L
  SODIUM: 144.2 MEQ/L
  TOTAL BILIRUBIN: 0.13 mg/dL
  TOTAL PROTEIN: 5.9 G/DL
  URIC ACID: 1.77 mg/dL
[2]
  ABSOLUTE BASOPHIL: 0 CELLS/uL
  ABSOLUTE EOSINOPHIL: 0 CELLS/uL
  ABSOLUTE LYMPHOCYTE: 13225.33 CELLS/uL
  ABSOLUTE MONOCYTE: 319.33 CELLS/uL
  ABSOLUTE SEGMENTED NEUTROPHIL: 888.67 CELLS/uL
  BASOPHIL: 0%
  EOSINOPHIL: 0%
  ERYTHROCYTE COUNT: 5.61 x10E6/uL
  HEMATOCRIT: 35.1%
  HEMOGLOBIN: 13.27 G/DL
  LEUKOCYTE COUNT: 14.43 x10E3/uL
  LYMPHOCYTE: 91.33%
  MEAN CORPUSCULAR HEMOGLOBIN: 23.63 pg
  MEAN CORPUSCULAR HEMOGLOBIN CONCENTRATION: 37.83 G/DL
  MEAN CORPUSCULAR VOLUME: 62.53 fL
  MONOCYTE: 2.33%
  NEUTROPHIL: 6.33%
  NUCLEATED RED BLOOD CELLS: 0 /100WBC
  PLATELET COUNT: 1433.33 x10E3/uL
  ALANINE AMINOTRANSFERASE: 58.67 u/L
  ALBUMIN: 3.97 G/DL
  ALKALINE PHOSPHATASE: 399 u/L
  ASPARTATE AMINOTRANSFERASE: 91.67 u/L
  BLOOD UREA NITROGEN: 14.33 mg/dL
  CARBON DIOXIDE: 25 mmol/L
  CHLORIDE: 103.67 MEQ/L
  CHOLESTEROL: 64.67 mg/dL
  CREATINE PHOSPHOKINASE: 345 u/L
  CREATININE: 0.23 mg/dL
  GLUCOSE: 157.67 mg/dL
  LACTATE DEHYDROGENASE: 414.67 u/L
  LIPASE: 9 u/L
  PHOSPHORUS: 11.17 mg/dL
  POTASSIUM: 6.18 MEQ/L
  SODIUM: 143.13 MEQ/L
  TOTAL BILIRUBIN: 0.2 mg/dL
  TOTAL PROTEIN: 5.33 G/DL
  URIC ACID: 2.03 mg/dL
[3]
  ABSOLUTE BASOPHIL: 0 CELLS/uL
  ABSOLUTE EOSINOPHIL: 46.67 CELLS/uL
  ABSOLUTE LYMPHOCYTE: 15630.33 CELLS/uL
  ABSOLUTE MONOCYTE: 287 CELLS/uL
  ABSOLUTE SEGMENTED NEUTROPHIL: 969.33 CELLS/uL
  BASOPHIL: 0%
  EOSINOPHIL: 0.33%
  ERYTHROCYTE COUNT: 5.98 x10E6/uL
  HEMATOCRIT: 36.77%
  HEMOGLOBIN: 13.93 G/DL
  LEUKOCYTE COUNT: 16.93 x10E3/uL
  LYMPHOCYTE: 92.33%
  MEAN CORPUSCULAR HEMOGLOBIN: 23.33 pg
  MEAN CORPUSCULAR HEMOGLOBIN CONCENTRATION: 37.93 G/DL
  MEAN CORPUSCULAR VOLUME: 61.5 fL
  MONOCYTE: 1.67%
  NEUTROPHIL: 5.67%
  NUCLEATED RED BLOOD CELLS: 0 /100WBC
  PLATELET COUNT: 1391 x10E3/uL
  ALANINE AMINOTRANSFERASE: 69 u/L
  ALBUMIN: 4.43 G/DL
  ALKALINE PHOSPHATASE: 394.33 u/L
  ASPARTATE AMINOTRANSFERASE: 96.33 u/L
  BLOOD UREA NITROGEN: 16 mg/dL
  CARBON DIOXIDE: 28 mmol/L
  CHLORIDE: 106.33 MEQ/L
  CHOLESTEROL: 63.33 mg/dL
  CREATINE PHOSPHOKINASE: 1265 u/L
  CREATININE: 0.3 mg/dL
  GLUCOSE: 145.67 mg/dL
  LACTATE DEHYDROGENASE: 187.33 u/L
  LIPASE: 9.33 u/L
  PHOSPHORUS: 12.2 mg/dL
  POTASSIUM: 6.24 MEQ/L
  SODIUM: 145.8 MEQ/L
  TOTAL BILIRUBIN: 0.2 mg/dL
  TOTAL PROTEIN: 6.07 G/DL
  URIC ACID: 1.97 mg/dL
